Reference: US20040044178A1, “Hepatotropic conjugates of antiblastic drugs accomplishing a loco-regional chemotherapy of liver micrometastases after adminstration by peripheral venous route” (priority 2001, published 2004)
Where two headings read alike, the source gives them in different places.

Assays:
[1] = patients with colorectal cancer, intravenous continuous infusion of a therapeutic dose; cited from earlier work
[2] = tested on: serum alanine aminotransferase (ALT); assay: Effect on alanine aminotransferase (ALT) serum levels in mouse; format: in vivo
Experimental: To verify whether the selective delivery of FUdR to hepatic cells accomplished by the conjugate causes liver damage, we compared the effect of free and conjugated FUdR on the serum alanine aminotransferase (ALT) (EC 2.6.1.2) level in mice (Table 3). An increase in the level of this enzyme is an index of hepatocyte damage. The drugs were administered according to the schedule used for the experiments on the growth of hepatic metastases.

[3] = tested on: hepatic metastases of murine colon carcinoma C-26 cells; assay: Effect of free and conjugated FUdR on liver metastases of C-26 cells in mouse; format: in vivo; details: for Increase of liver weight: saline 1.22 ± 0.25; for Total Liver DNA: saline 11.83 ± 1.75
Experimental: (§1) Female Balb/C mice 7-8 weeks old (weighing 16-19 g) and male Wistar rats (weighing 170-190 g) were used. They were obtained from Harlan Italy and were maintained in an animal facility at the Department of Experimental Pathology, Bologna, receiving humane care, in accordance with European Legislation. The protocols of the experiments were approved by the Ethical Committee of the University of Bologna. Animals. were fed a standard pellet diet ad lib.
Compounds were injected intravenously every other day, starting 24 h after inoculation of tumour cells. Four administrations were performed, and the animals were sacrificed one day after the injection.

[4] = [^3H]FUdR levels in inferior vena cava (IVC) and hepatic veins (HV) of rats intravenously injected with free or L-HSA conjugated [^3H]FUdR; format: in vivo; details: rat
From the text: Two radioactive conjugates were synthesised: one labelled in the carrier (L-[^14C]HSA-FUdR) and one in the drug moiety (L-HSA-[^3H]FUdR). […] The conjugateradioactive in the drug moiety (three preparations) was obtained using [^3H]FUdR (Moravek).
as §1, with “They” for “Female Balb/C mice 7-8 weeks old (weighing 16-19 g) and male Wistar rats (weighing 170-190 g) were used. They”
Plasma levels of free [^3H]FUdR were measured by using the isotope dilution procedure and HPLC. In order to identify the elution time of [^3H]FUdR in HPLC chromatogram and to evaluate the recovery, 15 μg of unlabeled FUdR was added to each plasma sample (400 μl), kept cold in ice. Plasma proteins were removed by the addition of 30 μl trichloroacetic acid 80% and centrifugation at 2-4° C. After diethylether extraction to eliminate trichloroacetic acid, […] supernatant was chromatographed on a Spherisorb ODS2 equilibrated on 20 mM sodium tetraborate pH 7.5 and eluted with a linear gradient of methanol (0-30%). Radioactivity eluting at the position of FUdR marker was counted and the plasma concentration of [^3H]FUdR was calculated taking into account the recovery of the marker (measured by UV absorbance) and the specific activity (SA) of injected [^3H]FUdR. […] When radioactivity of FUdR peak was lower than 200 dpm, the plasma concentration of [^3H]FUdR was considered below a measurable level (BML). With a 90% recovery of FUdR marker, the lowest measurable plasma concentration was about 25 ng [^3H]FUdR/ml.
These concentrations are a measure of drug levels in systemic circulation and in liver blood, respectively.

[5] = Exp. 1, daily dose 5 μg/g i.v. every other day x4, NS

O=c1[nH]c(=O)n([C@H]2C[C@H](O)[C@@H](CO)O2)cc1F [Free FUdR, 5-fluoro-2′-deoxyuridine]
Estimated blood concentration of the drug [1]: about 0.2 ng/ml | Serum ALT levels ([2]; Exp 2, 50 μg/g, four i.v. injections on alternate days, saline 64.5 ± 15.0, p = 0.045): 114.8 ± 16.0 p = 0.045 U/I | Effect on serum ALT level ([2]; dose 5 times higher than that active on the metastases): increase in ALT levels at the limit of statistical significance | Increase of liver weight [3, 5]: 1.00 ± 0.17 g | Total Liver DNA [3, 5]: 9.47 ± 1.06 mg | Increase of liver weight ([3]; Exp. 1, daily dose 10 μg/g i.v. every other day x4, p = 0.070): 0.64 ± 0.15 g | Total Liver DNA ([3]; Exp. 1, daily dose 10 μg/g i.v. every other day x4, p = 0.041): 7.32 ± 0.91 mg | Daily dose that inhibited the tumour growth ([3]; i.v. every other day, four administrations): 10 µg/g | concentration at 15 min ([4]; male, Wistar, plasma of hepatic vein blood, iv, i.v. 2.5 μg/g, 15 min, read-out: [^3H]FUdR level HV): 57.6 ± 9 ng/mL | concentration at 7 min ([4]; male, Wistar, plasma of hepatic vein blood, iv, i.v. 10 μg/g, 7 min, read-out: [^3H]FUdR level HV): 385 ng/mL | concentration at 15 min ([4]; male, Wistar, plasma of hepatic vein blood, iv, i.v. 10 μg/g, 15 min, read-out: [^3H]FUdR level HV): 203 ng/mL | concentration at 30 min ([4]; male, Wistar, plasma of hepatic vein blood, iv, i.v. 10 μg/g, 30 min, read-out: [^3H]FUdR level HV): 77.5 ± 43.6 ng/mL | concentration at 15 min ([4]; male, Wistar, plasma of hepatic vein blood, iv, i.v. free 1.2 μg/g, 15 min, read-out: [^3H]FUdR level HV): 40.9 ± 7.7 ng/mL | concentration at 7 min ([4]; male, Wistar, plasma of inferior vena cava blood, iv, i.v. 0.15 μg/g, 7 min, read-out: [^3H]FUdR level IVC): 80.1 ± 4.2 ng/mL | concentration at 15 min ([4]; male, Wistar, plasma of inferior vena cava blood, iv, i.v. 2.5 μg/g, 15 min, read-out: [^3H]FUdR level IVC): 404 ± 47.9 ng/mL | concentration at 30 min ([4]; male, Wistar, plasma of inferior vena cava blood, iv, i.v. 2.5 μg/g, 30 min, read-out: [^3H]FUdR level IVC): 156 ± 51.9 ng/mL | concentration at 45 min ([4]; male, Wistar, plasma of inferior vena cava blood, iv, i.v. 2.5 μg/g, 45 min, read-out: [^3H]FUdR level IVC): 25.5 ± 0.2 ng/mL | concentration at 7 min ([4]; male, Wistar, plasma of inferior vena cava blood, iv, i.v. 10 μg/g, 7 min, read-out: [^3H]FUdR level IVC): 1570 ng/mL | concentration at 15 min ([4]; male, Wistar, plasma of inferior vena cava blood, iv, i.v. 10 μg/g, 15 min, read-out: [^3H]FUdR level IVC): 1060 ng/mL | concentration at 30 min ([4]; male, Wistar, plasma of inferior vena cava blood, iv, i.v. 10 μg/g, 30 min, read-out: [^3H]FUdR level IVC): 467 ± 228 ng/mL | concentration at 15 min ([4]; male, Wistar, plasma of inferior vena cava blood, iv, i.v. free 1.2 μg/g, 15 min, read-out: [^3H]FUdR level IVC): 275.2 ± 0.7 ng/mL | concentration at 30 min ([4]; male, Wistar, plasma of inferior vena cava blood, iv, i.v. free 1.2 μg/g, 30 min, read-out: [^3H]FUdR level IVC): 38.9 ± 5.8 ng/mL | [^3H]FUdR level HV ([4]; i.v. 0.15 μg/g, 7 min): BML^b) (Below Measurable Level (<25 ng/ml)) | Levels in HV / Levels in IVC ([4]; i.v. 2.5 μg/g, 15 min): 0.15 ± 0.04 | Levels in HV / Levels in IVC ([4]; i.v. 2.5 μg/g, 30 min): 0.19 | [^3H]FUdR level HV ([4]; i.v. 2.5 μg/g, 45 min): BML (Below Measurable Level (<25 ng/ml)) | Levels in HV / Levels in IVC ([4]; i.v. 10 μg/g, 7 min): 0.24 | Levels in HV / Levels in IVC ([4]; i.v. 10 μg/g, 15 min): 0.19 | Levels in HV / Levels in IVC ([4]; i.v. 10 μg/g, 30 min): 0.16 ± 0.02 | Levels in HV / Levels in IVC ([4]; i.v. free 1.2 μg/g, 15 min): 0.15 ± 0.03 | [^3H]FUdR level HV ([4]; i.v. free 1.2 μg/g, 30 min): BML (Below Measurable Level (<25 ng/ml)) | [^3H]FUdR level HV ([4]; i.v. free 1.2 μg/g, 60 min): BML (Below Measurable Level (<25 ng/ml)) | [^3H]FUdR level IVC ([4]; i.v. free 1.2 μg/g, 60 min): BML (Below Measurable Level (<25 ng/ml))
